≈ marks a conversion by molar mass, not a printed value.
Test: Equilibrium solubility of vitamin A in supercritical CO2 (static cell, UV-VIS)
Assay type: physicochemical
Method: Figure 1 indicates the system used for measuring the equilibrium solubility. […] Consequently, the gas was liquefied through dropping the temperature to − 20 °C so that it was prepared for pumping function by means of pressure controlling instruments (TEBCO, Iran) with an uncertainty of ± 0.1 MPa.
After CO2 pumped into the inlet solvent stream, the methanol tank (as a co-solvent in this section) and modulator valve controlled the solvent concentration. The inlet solvent concentration should be regulated. Thus, it is an adjustable factor as function of solute content based on simultaneous data from experimental setup. The pressure of the circuit was taken into the collection container through altering amount of modulator on the injection tap. This includes a certain volume of solvent (CO2 and methanol). Providing the thermal equilibrium condition with the inner part of the oven in shorter time, this equilibrium spiral pipe can be utilized for efficient mixing of CO2 and modulators. The cell was put inside carefully (FG Model, BF400E, Iran) to keep the operating temperature (with ± 0.5 K).
Roughly before the start of the extraction, 500 mg of powder Retinol were put into the static cell with the volume of 10 mL and due to the pressure drop, downward flowrate (in line with weight force of the materials) was used. Eluding physical entrainment of the unextracted Vitamin A (Rich Retinol), the tops of the pressurized equilibrium cell were connected by means of the stainless-steel disks before SC-CO2 was distributed into the cell, its pressure was enhanced up to the anticipated pressure before it is moved through the equilibrium cell at operational conditions. In the present research, 60 min was estimated to achieve the state of equilibrium (in the cell).
In fact, the final sample (in the standard state) in two phases of gas (carbon dioxide) and liquid phase (solution containing methanol and vitamin A) It was stored in accumulation glass and entered the spectrophotometer. Finally, the solvent was used to clean the circuit.
As solubility values of Vitamin A were obtained in various conditions, they were noted by absorbency mensuration’s at λmax using a model 2100 UNICO UV–VIS spectrophotometer with 1000 nm Wavelength. The equilibrium mole fraction yA and equilibrium solubility, S(g/L) in SC-CO2 over the ranges of temperature and pressure obtained from below equation[21]:1 yA=nA/nA+nC where2 nA=CAg/L×VAL/MAg/mol 3 nC=VlL×ρg/L/MCg/mol where nA and nC are sample moles of vitamin A and solvent, CA is the concentration of vitamin A g/L in the accumulation glass calculated by the curve of calibration. The volumes of the accumulation vial are denoted by VAL and VlL is the sampling circuit. Furthermore, MA and MC are the molecular weights of Vitamin A and CO2, respectively. By combining the aforementioned, the subsequent relation is achieved (Eq. (4)).4 yA=CAg/L×VSL×MCg/mol/CAg/L×VAL×MCg/mol+VlL×ρg/L×MAg/mol
In order to obtain the g/L of Vitamin A in SC-CO2 […] was used[21].5 Sg/L=CAg/L×VAL/VlL

## CC1=C(/C=C/C(C)=C/C=C/C(C)=C/CO)C(C)(C)CCC1 [vitamin A, Retinol]
SC-CO2, 303 K, 90 bar
  Mole fraction: 2.18e-05
SC-CO2, 303 K, 115 bar
  Mole fraction: 2.92e-05
SC-CO2, 303 K, 130 bar
  Mole fraction: 3.58e-05
SC-CO2, 303 K, 140 bar
  Mole fraction: 4.12e-05
SC-CO2, 303 K, 155 bar
  Mole fraction: 5.29e-05
SC-CO2, 303 K, 175 bar
  Mole fraction: 6.01e-05
SC-CO2, 303 K, 185 bar
  Mole fraction: 6.25e-05
SC-CO2, 303 K, 195 bar
  Mole fraction: 7.21e-05
SC-CO2, 303 K, 220 bar
  Mole fraction: 7.96e-05
SC-CO2, 303 K, 230 bar
  Mole fraction: 8.19e-05
SC-CO2, 303 K, 245 bar
  Mole fraction: 8.32e-05
SC-CO2, 313 K, 100 bar
  Mole fraction: 1.68e-05
SC-CO2, 313 K, 120 bar
  Mole fraction: 3.62e-05
SC-CO2, 313 K, 130 bar
  Mole fraction: 5.41e-05
SC-CO2, 313 K, 140 bar
  Mole fraction: 5.25e-05
SC-CO2, 313 K, 155 bar
  Mole fraction: 6.63e-05
SC-CO2, 313 K, 170 bar
  Mole fraction: 8.13e-05
SC-CO2, 313 K, 200 bar
  Mole fraction: 0.000125
SC-CO2, 313 K, 235 bar
  Mole fraction: 0.000138
SC-CO2, 313 K, 245 bar
  Mole fraction: 0.000149
SC-CO2, 323 K, 110 bar
  Mole fraction: 2.68e-05
SC-CO2, 323 K, 135 bar
  Mole fraction: 5.24e-05
SC-CO2, 323 K, 180 bar
  Mole fraction: 0.00014
SC-CO2, 323 K, 195 bar
  Mole fraction: 0.000148
SC-CO2, 323 K, 205 bar
  Mole fraction: 0.00016
SC-CO2, 323 K, 235 bar
  Mole fraction: 0.000196
SC-CO2, isotherms at 303, 313 and 323 K (Fig. 3)
  cross-over pressure: 110 bar
SC-CO2, under certain conditions
  solubility of fat-soluble vitamin A in SC-CO2: ~0.7 g/kg
Supercritical CO2 in a 10 mL static equilibrium cell, organic solvent or mixture, thermodynamic from solid, SC-CO2, 303–323 K, 90–235 bar, minimum at 303 K, 90 bar, maximum at 323 K, 235 bar, read-out: equilibrium solubility S of Vitamin A in SC-CO2, span over all conditions
  solubility thermodynamic at 60 min: 96 to 1040 µg/mL (≈ 335 to 3620 µM)
